Data published in patent publication US11840686B2, “Modulation of prekallikrein (PKK) expression” (Ionis Pharmaceuticals, Inc., priority 2013, dated 2023).
Strand notation (5' to 3'): a small letter for the sugar, then the base; units joined by * are phosphorothioate-linked, units joined directly phosphodiester-linked; [ ] holds rarer units or linkages, { } end groups; capitals alone tell only the bases. e = 2'-O-(2-methoxyethyl) (MOE); [5mC] = 5-methylcytosine; d = 2'-deoxy (DNA)

How the values were obtained:
[1] = test system: human PKK mRNA; experiment: Antisense inhibition of human PKK mRNA in HepaRG cells, 5,000 nM (Example 2); format: cell-based
Method in brief: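 HepaRG cells, 20,000 per well, were electroporated with 5,000 nM MOE gapmer (phosphorothioate, 5-methylcytosine) and incubated about 24 hours. PKK mRNA was quantified by qRT-PCR with primer probe set RTS3454, normalized to RIBOGREEN total RNA, and expressed as percent inhibition versus untreated controls.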

[2] = test system: human PKK mRNA; experiment: Dose-dependent antisense inhibition of human PKK in HepaRG cells, 0.19-5.00 uM (Example 5); format: cell-based; conditions: for percent inhibition of PKK mRNA, 0.19 μM: 0.19 μM antisense oligonucleotide; for percent inhibition of PKK mRNA, 0.56 μM: 0.56 μM antisense oligonucleotide; for percent inhibition of PKK mRNA, 1.67 μM: 1.67 μM antisense oligonucleotide; for percent inhibition of PKK mRNA, 5.00 μM: 5.00 μM antisense oligonucleotide
Method in brief: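 HepaRG cells (20,000/well) were electroporated with antisense oligonucleotide at 0.19, 0.56, 1.67 and 5.00 μM and treated for about 16 hours. PKK mRNA was quantified by qRT-PCR with primer probe set RTS3454, normalised to RIBOGREEN total RNA, and IC50 was derived per oligonucleotide.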

[3] = Table 13, human PKK mRNA in HepaRG cells, 5-10-5 gapmers
[4] = HepaRG cells, electroporation, approximately 16 hours, Table 37
[5] = 4 point dose response, HepaRG cells, Table 37
[6] = Table 34, HepaRG, electroporation, ~16 h
[7] = Table 34, PKK mRNA, HepaRG, electroporation, ~16 h
[8] = HepaRG cells, electroporation, approximately 16 hours, Table 40
[9] = 4 point dose response, HepaRG cells, Table 40
[10] = HepaRG cells, electroporation, approximately 16 hours, Table 36
[11] = HepaRG cells, electroporation with 5,000 nM antisense oligonucleotide, approximately 24 hours, PKK mRNA by RT-PCR (RTS3454), relative to untreated control cells, Table 5 experiment
[12] = HepaRG cells, electroporation, approximately 16 hours, Table 38
[13] = 4 point dose response, HepaRG cells, Table 38
[14] = HepaRG cells, electroporation, approximately 16 hours, Table 39

## 546847 (eA*e[5mC]*eT*eG*eT*d[5mC]*d[5mC]*dT*dA*dT*dA*dT*d[5mC]*dA*d[5mC]*eT*eG*eT*e[5mC]*e[5mC]; antisense) [compound 546847]
[1]; [3]
  % inhibition: 88%
[2]; [4]
  percent inhibition of PKK at 0.19 μM: 39%
  percent inhibition of PKK at 0.56 μM: 57%
  percent inhibition of PKK at 1.67 μM: 75%
  percent inhibition of PKK at 5.00 μM: 89%
[2]; [5]
  IC50: 400 nM
[2]; HepaRG cells
  percent inhibition of PKK mRNA, 0.19 μM: 14%
  percent inhibition of PKK mRNA, 0.56 μM: 44%
  percent inhibition of PKK mRNA, 1.67 μM: 83%
  percent inhibition of PKK mRNA, 5.00 μM: 95%
[2]; HepaRG cells, 0.19-5.00 μM
  IC50: 700 nM

## 547464 (antisense eG*e[5mC]*eT*eT*eG*dT*dG*dT*d[5mC]*dA*d[5mC]*d[5mC]*dT*dT*dT*eG*eG*eA*eA*eG) [compound 547464]
[1]; Table 9 experiment, HepaRG cells, 20,000 cells per well, electroporation with 5,000 nM antisense oligonucleotide, approx. 24 hours, PKK mRNA by RT-PCR (RTS3454), relative to untreated control cells
  % inhibition: 95%
[1]; Table 10 experiment, HepaRG cells, 20,000 cells per well, electroporation with 5,000 nM antisense oligonucleotide, approx. 24 hours, PKK mRNA by RT-PCR (RTS3454), relative to untreated control cells
  % inhibition: 84%
[2]; [6]
  percent inhibition of PKK at 0.19 μM: 21%
  percent inhibition of PKK at 0.56 μM: 52%
  percent inhibition of PKK at 1.67 μM: 67%
  percent inhibition of PKK at 5.00 μM: 97%
[2]; [7]
  IC50: 600 nM

## 547374 (eG*eA*eT*eA*eG*dG*dT*dG*d[5mC]*dA*dG*dA*dT*dG*dG*eT*e[5mC]*e[5mC]*eG*eA; antisense) [compound 547374]
[1]; Table 7, HepaRG cells, electroporation with 5,000 nM antisense oligonucleotide, approx. 24 hours, PKK mRNA by RT-PCR (RTS3454), relative to untreated control cells
  % inhibition: 81%
[2]; [8]
  percent inhibition of PKK at 0.19 μM: 0%
  percent inhibition of PKK at 0.56 μM: 15%
  percent inhibition of PKK at 1.67 μM: 24%
  percent inhibition of PKK at 5.00 μM: 44%
[2]; [9]
  IC50: > 5000 nM

## 546903 (e[5mC]*e[5mC]*eT*eA*eT*dA*dT*d[5mC]*dA*d[5mC]*dT*dG*dT*dA*d[5mC]*e[5mC]*eT*eA*eT*eA; antisense) [compound 546903]
[1]; human PKK mRNA, HepaRG cells, 5-10-5 motif oligonucleotides targeting SEQ ID NO: 1 and 10
  % inhibition: 91%
[2]; [10]
  percent inhibition of PKK at 0.19 μM: 15%
  percent inhibition of PKK at 0.56 μM: 37%
  percent inhibition of PKK at 1.67 μM: 74%
  percent inhibition of PKK at 5.00 μM: 98%
[2]; 4 point dose response, HepaRG cells, Table 36
  IC50: 800 nM

## 546939 (eG*e[5mC]*e[5mC]*eA*eT*d[5mC]*dT*dG*dG*dT*dT*dA*dG*d[5mC]*d[5mC]*eT*e[5mC]*e[5mC]*eG*eA; antisense) [compound 546939]
[1]; HepaRG cells, 5,000 nM antisense oligonucleotide, 5-10-5 gapmers, Table 16
  % inhibition: 89%
[2]; [4]
  percent inhibition of PKK at 0.19 μM: 1%
  percent inhibition of PKK at 0.56 μM: 66%
  percent inhibition of PKK at 1.67 μM: 86%
  percent inhibition of PKK at 5.00 μM: 90%
[2]; [5]
  IC50: 600 nM
[2]; HepaRG cells
  percent inhibition of PKK mRNA, 0.19 μM: 16%
  percent inhibition of PKK mRNA, 0.56 μM: 71%
  percent inhibition of PKK mRNA, 1.67 μM: 96%
  percent inhibition of PKK mRNA, 5.00 μM: 95%
[2]; HepaRG cells, 0.19-5.00 μM
  IC50: 400 nM

## 547288 (antisense e[5mC]*eA*eT*eA*eG*dA*dG*dT*dT*dG*dA*dG*dT*d[5mC]*dA*eG*eA*e[5mC]*eA*eT) [compound 547288]
[1]; [11]
  % inhibition: 80%
[2]; [8]
  percent inhibition of PKK at 0.19 μM: 0%
  percent inhibition of PKK at 0.56 μM: 0%
  percent inhibition of PKK at 1.67 μM: 0%
  percent inhibition of PKK at 5.00 μM: 38%
[2]; [9]
  IC50: > 5000 nM

## 547615 (antisense eT*e[5mC]*e[5mC]*eT*eA*dT*dA*dT*d[5mC]*dA*d[5mC]*dT*dG*dT*dA*e[5mC]*e[5mC]*eT*eG*eT) [compound 547615]
[1]; human PKK mRNA in HepaRG cells, 5-10-5 gapmers, Table 14
  % inhibition: 84%
[2]; [12]
  percent inhibition of PKK at 0.19 μM: 20%
  percent inhibition of PKK at 0.56 μM: 26%
  percent inhibition of PKK at 1.67 μM: 41%
  percent inhibition of PKK at 5.00 μM: 84%
[2]; [13]
  IC50: 1400 nM

## 547445 (antisense eG*e[5mC]*e[5mC]*eA*e[5mC]*dT*dA*dT*dA*dG*dA*dT*dG*d[5mC]*dG*e[5mC]*e[5mC]*eA*eA*eA) [compound 547445]
[1]; Table 8, HepaRG cells, electroporation with 5,000 nM antisense oligonucleotide, approx. 24 hours, PKK mRNA by RT-PCR (RTS3454), relative to untreated control cells
  % inhibition: 97%
[2]; HepaRG cells, electroporation, approximately 16 hours, Table 41
  percent inhibition of PKK at 5.00 μM: 91%
[2]; 0.19 0μM, HepaRG cells, electroporation, approximately 16 hours, Table 41
  percent inhibition of PKK at 0.19 0μM: 80%
[2]; 0.56 0μM, HepaRG cells, electroporation, approximately 16 hours, Table 41
  percent inhibition of PKK at 0.56 0μM: 87%
[2]; 1.67 1μM, HepaRG cells, electroporation, approximately 16 hours, Table 41
  percent inhibition of PKK at 1.67 1μM: 98%
[2]; 4 point dose response, HepaRG cells, Table 41
  IC50: < 200 nM
[2]; [6]
  percent inhibition of PKK at 0.19 μM: 41%
  percent inhibition of PKK at 0.56 μM: 75%
  percent inhibition of PKK at 1.67 μM: 82%
  percent inhibition of PKK at 5.00 μM: 88%
[2]; [7]
  IC50: 200 nM

## 547006 (e[5mC]*eG*e[5mC]*e[5mC]*eA*dT*d[5mC]*dT*dG*d[5mC]*d[5mC]*d[5mC]*dT*dG*dT*eA*e[5mC]*eA*eG*eA; antisense) [compound 547006]
[1]; HepaRG cells, 5,000 nM antisense oligonucleotide, 5-10-5 gapmers, Table 17
  % inhibition: 39%
[2]; [12]
  percent inhibition of PKK at 0.19 μM: 0%
  percent inhibition of PKK at 0.56 μM: 0%
  percent inhibition of PKK at 1.67 μM: 54%
  percent inhibition of PKK at 5.00 μM: 77%
[2]; [13]
  IC50: 1500 nM

## 546829 (eA*eA*e[5mC]*eA*eG*dT*dA*dT*d[5mC]*dA*d[5mC]*dT*dG*dT*dA*e[5mC]*eT*eA*eG*eT; antisense) [compound 546829]
[1]; [3]
  % inhibition: 94%
[2]; [6]
  percent inhibition of PKK at 0.19 μM: 3%
  percent inhibition of PKK at 0.56 μM: 30%
  percent inhibition of PKK at 1.67 μM: 73%
  percent inhibition of PKK at 5.00 μM: 88%
[2]; [7]
  IC50: 1000 nM

## 547275 (antisense eT*eT*eG*eG*eA*dG*dG*dT*dG*dA*dG*dT*d[5mC]*dT*d[5mC]*eT*eT*eG*eT*e[5mC]) [compound 547275]
[1]; [11]
  % inhibition: 87%
[2]; [14]
  percent inhibition of PKK at 0.19 μM: 34%
  percent inhibition of PKK at 0.56 μM: 66%
  percent inhibition of PKK at 1.67 μM: 82%
  percent inhibition of PKK at 5.00 μM: 95%
[2]; 4 point dose response, HepaRG cells, Table 39
  IC50: 300 nM
[2]; HepaRG cells
  percent inhibition of PKK mRNA, 0.19 μM: 56%
  percent inhibition of PKK mRNA, 0.56 μM: 16%
  percent inhibition of PKK mRNA, 1.67 μM: 80%
  percent inhibition of PKK mRNA, 5.00 μM: 86%
[2]; HepaRG cells, 0.19-5.00 μM
  IC50: 1200 nM
